Measured values reported in publication PMC11630551, “In silico screening of protein-binding peptides with an application to developing peptide inhibitors against antibiotic resistance” (PNAS Nexus, 2024).
“Also recorded” adds a separate entry of the source.

Molecular target: T1, TEM-1 β-lactamase (Escherichia coli, UniProt P62593)
T1 construct: host or cells: E. coli BL21 (DE3)
Test: not given
Type: biochemical
Conditions: not given

T1 sequence (P62593 24-286 limits assumed): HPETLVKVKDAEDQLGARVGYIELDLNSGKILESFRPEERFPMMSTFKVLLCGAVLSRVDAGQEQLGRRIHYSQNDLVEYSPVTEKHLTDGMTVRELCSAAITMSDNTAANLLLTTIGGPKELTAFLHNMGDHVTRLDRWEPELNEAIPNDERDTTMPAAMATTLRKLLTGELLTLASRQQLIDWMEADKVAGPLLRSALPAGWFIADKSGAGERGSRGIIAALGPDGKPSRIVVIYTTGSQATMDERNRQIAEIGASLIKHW

Row | Sequence | change of β-lactamase activity of TEM-1 at peptide screening concentration
1 | AKYFEQASYG [TF6] | increased the β-lactamase activity; also recorded: did not exhibit significant inhibition
2 | ARDATCRRWG [TF3] | increased the β-lactamase activity; also recorded: did not exhibit significant inhibition
3 | ASRAEVDAAAKGAA [TF8] | did not exhibit significant inhibition
4 | EYGDAWHDAG [TF4] | did not exhibit significant inhibition
5 | RDSVGAASVN [TF9] | did not exhibit significant inhibition

Test system: not listed separately
Test: Solubility of synthesized peptides
Conditions: excluded from assay experiments

Row | Sequence | solubility
6 | ESYHGMLACVIAG [TF10] | poor solubility
